Assay results reported in ChEMBL document CHEMBL1121918, “Synthesis and pharmacological evaluation of poly(oxyethylene) derivatives of 4-isobutylphenyl-2-propionic acid (ibuprofen)” (J Med Chem, 1981).

test: Lethal dose in mice when administered orally; assay type: toxicity, organism-based; details: mouse, in vivo, po

Row | Compound | LD50
1 | CC(C)Cc1ccc(C(C)C(=O)OCCOCCOCCOCCO)cc1 (stereo not drawn) | > 2000 mg/kg
2 | CC(C)Cc1ccc(C(C)C(=O)OCCOCCOCCOCCOCCOCCOCCOCCOCCOCCOCCOCCOCCOCCOCCOCCOCCOCCOCCOCCOCCOCCOCCOCCOCCOCCOCCOCCOCCOCCOCCOCCOCCOCCOCCOCCOCCOCCOCCOCCOCCOCCOCCOCCOCCOC(=O)C(C)c2ccc(CC(C)C)cc2)cc1 (stereo not drawn) | > 2000 mg/kg
3 | CC(C)Cc1ccc(C(C)C(=O)OCCOCCOCCOCCOCCOCCOCCOCCOCCOCCOCCOCCOCCOCCOCCOCCOCCOCCOCCOCCOC(=O)C(C)c2ccc(CC(C)C)cc2)cc1 (stereo not drawn) | > 2000 mg/kg
